# Assay results taken from US4048299A, “Anticaries confectionaries and oral health products” (William Wrigley, Jr. Co., priority 1970, dated 1977).
# Key:
# [1] = tested on: Lactobacillus casei ATCC 4646; experiment: Acid production inhibition by aldehydes in product vehicles, broth-tube technique; assay type: cell-based; settings: 1 to 5 percent aldehyde
# Streptococcus spp. KI-R [2] = experiment: as above; assay type: cell-based; settings: 1 to 5 percent aldehyde
# [3] = tested on: Lactobacillus casei ATCC 4646; experiment: Growth inhibition by aldehydes in product vehicles, pour-plate technique; assay type: cell-based; settings: 1 to 5 percent aldehyde
# Procedure, shortened: (§1)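 Aldehydes (1 to 5 percent by weight) were formulated into syrups, candies, mouthwash, toothpaste or toothpowder, added directly or as aqueous extracts to medium without a carbon source mixed 1:1 with filter-sterilized human saliva. Sugar came from the product or added sucrose. Growth over up to 24 hours was read by pour-plate count.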
# [4] = tested on: Mixed human oral microorganisms; experiment: as above; assay type: cell-based; settings: 1 to 5 percent aldehyde
# Procedure, shortened: as §1
# Streptococcus spp. KI-R [5] = experiment: as above; assay type: cell-based; settings: 1 to 5 percent aldehyde
# Procedure, shortened: as §1
# oral microorganisms = experiment: Acid production inhibition in vitro (summary); assay type: cell-based; settings: in words, summary of tables
# Protocol: Other in vitro evaluations utilized a broth tube analysis of representative anticaries aldehydes incorporated in the vehicles of this invention against cultures of acid producing microorganisms normally present in the mouth. Standard laboratory procedures were utilized throughout to evaluate the acid production inhibition and growth inhibition over the incubation time of up to 24 hours.
# Lactobacillus casei = experiment: Acid production inhibition, broth-tube technique; settings: single agent
# Source text: The data was compiled through well-known broth tube analysis techniques.
# (a)Measured by broth-tube technique.
# [6] = in compressed candy tablet, 2 h incubation
# [7] = in compressed candy tablet, 5 h incubation
# [8] = in compressed candy tablet, 24 h incubation
# [9] = in dextrose syrup, 2 h incubation
# [10] = in dextrose syrup, 5 h incubation
# [11] = in dextrose syrup, 24 h incubation
# [12] = in sucrose syrup, 2 h incubation
# [13] = in sucrose syrup, 5 h incubation
# [14] = in sucrose syrup, 24 h incubation
# [15] = in tooth powder (aqueous extract), 2 h incubation
# [16] = in tooth powder (aqueous extract), 5 h incubation
# [17] = in tooth powder (aqueous extract), 24 h incubation
# [18] = in toothpaste (aqueous extract), 2 h incubation
# [19] = in toothpaste (aqueous extract), 5 h incubation
# [20] = in toothpaste (aqueous extract), 24 h incubation
smiles,measurement,setting,value
"O=C[C@H](O)CO (racemic) [d,1-Glyceraldehyde]",Acid Production Inhibition,[1]; [6],0 Per Cent
same,Acid Production Inhibition,[1]; [7],0 Per Cent
same,Acid Production Inhibition,[1]; [8],73 Per Cent
same,Acid Production Inhibition,[1]; [9],57 Per Cent
same,Acid Production Inhibition,[1]; [10],33 Per Cent
same,Acid Production Inhibition,[1]; [11],89 Per Cent
same,Acid Production Inhibition,[1]; [12],0 Per cent
same,Acid Production Inhibition,[1]; [13],30 Per cent
same,Acid Production Inhibition,[1]; [14],79 Per cent
same,Acid Production Inhibition,[1]; [15],0 Per cent
same,Acid Production Inhibition,[1]; [16],0 Per cent
same,Acid Production Inhibition,[1]; [17],84 Per cent
same,Acid Production Inhibition,[1]; [18],0 Per cent
same,Acid Production Inhibition,[1]; [19],0 Per cent
same,Acid Production Inhibition,[1]; [20],0 Per cent
same,Acid Production Inhibition,Streptococcus spp. KI-R [2]; [6],0 Per Cent
same,Acid Production Inhibition,Streptococcus spp. KI-R [2]; [7],25 Per Cent
same,Acid Production Inhibition,Streptococcus spp. KI-R [2]; [8],84 Per Cent
same,Acid Production Inhibition,Streptococcus spp. KI-R [2]; [9],48 Per Cent
same,Acid Production Inhibition,Streptococcus spp. KI-R [2]; [10],86 Per Cent
same,Acid Production Inhibition,Streptococcus spp. KI-R [2]; [11],82 Per Cent
same,Acid Production Inhibition,"Streptococcus spp. KI-R [2]; in mouthwash, 2 h incubation",0 Per cent
same,Acid Production Inhibition,"Streptococcus spp. KI-R [2]; in mouthwash, 5 h incubation",0 Per cent
same,Acid Production Inhibition,"Streptococcus spp. KI-R [2]; in mouthwash, 24 h incubation",86 Per cent
same,Acid Production Inhibition,Streptococcus spp. KI-R [2]; [12],69 Per cent
same,Acid Production Inhibition,Streptococcus spp. KI-R [2]; [13],88 Per cent
same,Acid Production Inhibition,Streptococcus spp. KI-R [2]; [14],86 Per cent
same,Acid Production Inhibition,Streptococcus spp. KI-R [2]; [15],0 Per cent
same,Acid Production Inhibition,Streptococcus spp. KI-R [2]; [16],0 Per cent
same,Acid Production Inhibition,Streptococcus spp. KI-R [2]; [17],0 Per cent
same,Acid Production Inhibition,Streptococcus spp. KI-R [2]; [18],0 Per cent
same,Acid Production Inhibition,Streptococcus spp. KI-R [2]; [19],0 Per cent
same,Acid Production Inhibition,Streptococcus spp. KI-R [2]; [20],0 Per cent
same,Growth Inhibition,[3]; [6],N.S.
same,Growth Inhibition,[3]; [7],N.S.
same,Growth Inhibition,[3]; [8],100 Per Cent
same,Growth Inhibition,[3]; [9],N.S.
same,Growth Inhibition,[3]; [10],N.S.
same,Growth Inhibition,[3]; [11],> 99.99 Per Cent
same,Growth Inhibition,[3]; [12],0 Per cent
same,Growth Inhibition,[3]; [13],N.S.
same,Growth Inhibition,[3]; [14],99 Per cent
same,Growth Inhibition,[3]; [15],N.S.
same,Growth Inhibition,[3]; [16],N.S.
same,Growth Inhibition,[3]; [17],99.3 Per cent
same,Growth Inhibition,[3]; [18],N.S.
same,Growth Inhibition,[3]; [19],N.S.
same,Growth Inhibition,[3]; [20],100 Per cent
same,Growth Inhibition,[4]; [6],99.7 Per Cent
same,Growth Inhibition,[4]; [7],99.99 Per Cent
same,Growth Inhibition,[4]; [8],N.S.
same,Growth Inhibition,[4]; [9],97.5 Per Cent
same,Growth Inhibition,[4]; [10],> 99.99 Per Cent
same,Growth Inhibition,[4]; [11],0 Per Cent
same,Growth Inhibition,"[4]; in mouthwash, 2 h incubation",95.0 Per cent
same,Growth Inhibition,"[4]; in mouthwash, 5 h incubation",99.98 Per cent
same,Growth Inhibition,"[4]; in mouthwash, 24 h incubation",N.S.
same,Growth Inhibition,[4]; [12],96 Per cent
same,Growth Inhibition,[4]; [13],99.6 Per cent
same,Growth Inhibition,[4]; [14],0 Per cent
same,Growth Inhibition,[4]; [15],N.S.
same,Growth Inhibition,[4]; [16],99.3 Per cent
same,Growth Inhibition,[4]; [17],N.S.
same,Growth Inhibition,[4]; [18],97 Per cent
same,Growth Inhibition,[4]; [19],N.S.
same,Growth Inhibition,[4]; [20],100 Per cent
same,Growth Inhibition,Streptococcus spp. KI-R [5]; [6],0 Per Cent
same,Growth Inhibition,Streptococcus spp. KI-R [5]; [7],N.S.
same,Growth Inhibition,Streptococcus spp. KI-R [5]; [8],N.S.
same,Growth Inhibition,Streptococcus spp. KI-R [5]; [9],98 Per Cent
same,Growth Inhibition,Streptococcus spp. KI-R [5]; [10],> 99.99 Per Cent
same,Growth Inhibition,Streptococcus spp. KI-R [5]; [11],> 100 Per Cent
same,Growth Inhibition,"Streptococcus spp. KI-R [5]; in mouthwash, 2 h incubation",> 99.99 Per cent
same,Growth Inhibition,"Streptococcus spp. KI-R [5]; in mouthwash, 5 h incubation",99.99 Per cent
same,Growth Inhibition,"Streptococcus spp. KI-R [5]; in mouthwash, 24 h incubation",100 Per cent
same,Growth Inhibition,Streptococcus spp. KI-R [5]; [12],90 Per cent
same,Growth Inhibition,Streptococcus spp. KI-R [5]; [13],90 Per cent
same,Growth Inhibition,Streptococcus spp. KI-R [5]; [14],99 Per cent
same,Growth Inhibition,Streptococcus spp. KI-R [5]; [15],99.88 Per cent
same,Growth Inhibition,Streptococcus spp. KI-R [5]; [16],99.99 Per cent
same,Growth Inhibition,Streptococcus spp. KI-R [5]; [17],100 Per cent
same,Growth Inhibition,Streptococcus spp. KI-R [5]; [18],N.S.
same,Growth Inhibition,Streptococcus spp. KI-R [5]; [19],N.S.
same,Growth Inhibition,Streptococcus spp. KI-R [5]; [20],0 Per cent
same,Acid Production Inhibition,oral microorganisms,excellent acid production inhibition
same,Acid Production Inhibition,Lactobacillus casei; 0.02 percent,11%
same,Acid Production Inhibition,Lactobacillus casei; 0.03 percent,17%
same,Acid Production Inhibition,Lactobacillus casei; 0.04 percent,22%
